According to US7807185B2, “Methods of inhibiting growth of bacteria, yeast, fungus, and virus with Pseudomonas lindbergii and Bacillus coagulans extracellular products” (Ganeden Biotech, Incorporated, priority 1997, dated 2010):

Experiments:
Type in all cases: cell-based
Details in all cases: 18 hr at 30° C.
[1] = test system: various opportunistic bacterial pathogens; experiment: in vitro bacterial pathogen screen, zone of inhibition (DIFCO BACTROL Disk Set)
From the text: The ability of Bacillus coagulans to inhibit various opportunistic bacterial pathogens was quantitatively ascertained by use of an in vitro assay. This assay is part of a standardized bacterial pathogen screen (developed by the U.S. Food and Drug Administration (FDA)) and is commercially available on solid support disks (DIFCO® BACTROL® Disk Set). To perform the assay, potato-dextrose plates (DIFCO®) were initially prepared using standard procedures. The plates were then individually inoculated with each of the bacteria (approximately 1.5×10^6 CFU) to be tested, so as to form a confluent bacterial bed.
Inhibition by Bacillus coagulans was subsequently ascertained by placing approximately 1.5×10^6 CFU of Bacillus coagulans in 10 μl of broth or buffer, directly in the center of the potato-dextrose plate, with one test locus being approximately 8 mm in diameter per plate. A minimum of three test loci were used for each assay. The negative control consisted of a 10 μl volume of a sterile saline solution, whereas the positive control consisted of a 10 μl volume of glutaraldehyde. The plates were then incubated for approximately about 18 hr at 30° C., at which time the zones of inhibition were measured. […]

[2] = test system: various species of the fungus Trichophyton; experiment: in vitro zone of inhibition assay on potato-dextrose plates, Trichophyton
Method: In the assay, potato-dextrose plates (DIFCO®, Detroit, Mich.) were prepared using standard procedures and were inoculated individually with a confluent bed (about 1.7×10^6) of various species of the fungus Trichophyton. The tested fungal strains of Trichophyton species (available from the American Type Culture Collection (ATCC; 10801 University Boulevard, Manassas, Va. 20110-2209)) and their ATCC accession numbers, as well as the results of in vitro inhibition by Bacillus coagulans are illustrated in FIG. 3.
Inhibition by Bacillus coagulans was ascertained by placing on the plate approximately 1.5×10^6 colony forming units (CFU) in 10 μl of broth or buffer, plated directly in the center of the potato-dextrose plate, with one test locus per plate. The size of each test locus was approximately 8 mm in diameter and a minimum of three tests were performed for each inhibition assay. The negative control consisted of a […] volume of sterile saline solution, whereas the positive control consisted of a […] volume 2% Miconazole (1-[2-(2,4-dichlorophenyl)-2-[(2,4-dichlorophenyl)methoxy]methyl-[…] within an inert cream.
The plates were then incubated for approximately 18 hr at 30° C., at which time the zones of inhibition were measured. […]

four species of Candida = experiment: in vitro zone of inhibition assay on potato-dextrose plates, Candida
Method: Each of the yeast pathogens and their ATCC accession numbers are illustrated in FIG. 4.
In the in vitro inhibition assay, potato-dextrose plates (DIFCO®, Detroit, Mich.) were prepared using standard procedures and were inoculated individually with a confluent bed about 1.7×10^6 of the four species of Candida. Inhibition by Bacillus coagulans was tested by placing on the plate about 1.5×10^6 colony forming units (CFU) in 10 μl of broth or buffer, plated directly in the center of the potato-dextrose plate with one test locus of about 8 mm in diameter per plate. A minimum of three tests were performed for each inhibition assay. The negative control consisted of a 10 μl volume of a sterile saline solution, whereas the positive control consisted of a 1 μl volume of Miconazole cream.
The plates were then incubated for approximately 18 hr at 30° C., at which time the zones of inhibition were measured. As designated herein, “excellent inhibition” means the zone was 10 mm or greater in diameter; and “good inhibition” means the zone was greater than 2 mm in diameter, but less than 10 mm in diameter.

Compound | zone of inhibition diameter ([1]; 10 μl volume of glutaraldehyde, average of three tests) | inhibition grade (zone of inhibition) [1] | zone of inhibition diameter ([2]; 10 ml volume 2% Miconazole in inert cream, mean average of three tests) | inhibition grade (zone of inhibition) [2] | zone of inhibition diameter (four species of Candida; 1 μl volume of Miconazole cream, average of three tests) | inhibition grade (zone of inhibition) (four species of Candida)
O=CCCCC=O [glutaraldehyde] | approximately 16.2 mm | excellent | – | – | – | –
Clc1ccc(COC(Cn2ccnc2)c2ccc(Cl)cc2Cl)c(Cl)c1 (stereo not drawn) [positive control] | – | – | approximately 8.5 mm | good inhibition (the zone was greater than 2 mm in diameter, but less than 10 mm in diameter) | approximately 8.7 mm | good inhibition (the zone was greater than 2 mm in diameter, but less than 10 mm in diameter)
